Measurements from patent US20060270629A1, “Methanocarba cycloalkyl nucleoside analogues” (Govt of the U.S.A., represented by the Secretary, Dept of …, priority 2000, published 2006).
Values joined by “and” are separate entries in the source; they are usually repeats but may differ in a detail not shown here. Equal values may be shown once. Where a name gives a salt, the structure may show the parent alone. Read-outs that look alike come from different tables or passages of the source.

Legend:
[1] = molecular target: turkey erythrocyte P2Y1 receptors (Meleagris gallopavo, UniProt P49652); assay: PLC (inositol phosphate formation) assay in turkey erythrocyte membranes; conditions: for agonist or antagonist character at P2Y1 receptors: PLC assay
Chain of turkey erythrocyte P2Y1 receptors (P49652 whole entry): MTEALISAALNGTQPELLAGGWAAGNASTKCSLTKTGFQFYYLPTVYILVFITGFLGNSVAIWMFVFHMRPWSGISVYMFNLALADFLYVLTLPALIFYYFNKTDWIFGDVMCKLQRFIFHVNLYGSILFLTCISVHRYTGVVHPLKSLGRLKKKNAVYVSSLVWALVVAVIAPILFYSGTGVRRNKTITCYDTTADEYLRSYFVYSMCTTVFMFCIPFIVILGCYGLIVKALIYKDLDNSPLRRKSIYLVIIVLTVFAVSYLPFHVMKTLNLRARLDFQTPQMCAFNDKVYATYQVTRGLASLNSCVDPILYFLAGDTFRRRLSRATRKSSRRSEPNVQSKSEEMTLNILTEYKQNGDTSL
Description: Concentration-response curves were determined for each compound alone and in combination with 10 nM 2-MeSADP.
P2Y1 receptor promoted stimulation of inositol phosphate formation by adenine nucleotide analogues was measured in turkey erythrocyte membranes as previously described. […] Erythrocyte ghosts were prepared by rapid lysis in hypotonic buffer (5 mM sodium phosphate, pH 7.4, 5 mM MgCl2, 1 mM EGTA) as described. […] Assays (200 μL final volume) contained 1 μM GTPγS and the indicated concentrations of nucleotide analogues. Ghosts were incubated at 30° C. for 5 min, and total [^3H]inositol phosphates were quantitated by anion exchange chromatography as previously described.^7,36
Agonist potencies were calculated using a four-parameter logistic equation and the GraphPad software package (GraphPad, San Diego, Calif.).

[2] = molecular target: T1, human A3 receptors (Homo sapiens, UniProt P0DMS8); assay: A3 adenosine receptor binding using [125I]AB-MECA, transfected CHO cell membranes; conditions: for Ki: human A3 receptors, read-out: K1 (nM), hA3; for A1/A3: ratio of Ki at rat A1 to Ki at A3 (human, or rat where marked (r))
T1 sequence (P0DMS8 1-318): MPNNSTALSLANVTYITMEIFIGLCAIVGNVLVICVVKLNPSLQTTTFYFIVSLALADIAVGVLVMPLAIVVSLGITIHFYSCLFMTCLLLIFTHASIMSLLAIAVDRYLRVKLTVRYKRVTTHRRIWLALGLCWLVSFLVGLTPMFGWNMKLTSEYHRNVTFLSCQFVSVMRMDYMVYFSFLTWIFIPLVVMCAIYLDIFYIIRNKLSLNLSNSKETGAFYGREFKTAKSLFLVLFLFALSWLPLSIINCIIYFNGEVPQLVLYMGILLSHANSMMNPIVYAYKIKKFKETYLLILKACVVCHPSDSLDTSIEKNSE
Description: The final pellets were resuspended in 50 mM Tris.HCl buffer, pH 7.4, containing 10 mM MgCl2 and 0.1 mM EDTA and stored at -70° C. […] The total volume of the reaction mixture was 125 μl. Bound and free ligands were separated by rapid filtration of the reaction mixture through Whatman GF/B glass filters. The filters were immediately washed with two 5 ml-portions of ice-cold 50 mM Tris.HCl buffer (pH 7.4). The radioactivity bound to the filters was determined in a Beckman gamma counter.

[3] = molecular target: rat A2A receptors (Rattus norvegicus, UniProt P30543); assay: Radioligand binding at rat A2A adenosine receptors; conditions: for Ki: read-out: K1 (nM), rA2A
Chain of rat A2A receptors (P30543 whole entry): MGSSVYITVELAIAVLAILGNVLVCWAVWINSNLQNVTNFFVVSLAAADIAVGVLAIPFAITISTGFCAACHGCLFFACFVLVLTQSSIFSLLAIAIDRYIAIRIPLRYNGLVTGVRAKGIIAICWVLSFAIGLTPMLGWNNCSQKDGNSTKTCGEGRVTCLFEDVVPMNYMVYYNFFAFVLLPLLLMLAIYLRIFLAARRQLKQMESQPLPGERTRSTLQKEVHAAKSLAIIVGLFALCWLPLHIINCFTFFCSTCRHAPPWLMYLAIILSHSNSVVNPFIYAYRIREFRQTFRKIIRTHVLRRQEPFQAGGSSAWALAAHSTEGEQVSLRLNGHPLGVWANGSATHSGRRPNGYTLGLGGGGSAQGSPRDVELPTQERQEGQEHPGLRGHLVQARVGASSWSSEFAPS
Description: (§1) Bound and free ligands were separated by rapid filtration of the reaction mixture through Whatman GF/B glass filters. The filters were immediately washed with two 5 ml-portions of ice-cold 50 mM Tris.HCl buffer (pH 7.4). The radioactivity bound to the filters was determined in a Beckman gamma counter.

[4] = molecular target: T2, rat A1 receptors (Rattus norvegicus, UniProt P25099); assay: Radioligand binding at rat A1 adenosine receptors; conditions: for Ki: rat A1 receptors, read-out: K1 (nM), rA1
T2 sequence (P25099 1-326): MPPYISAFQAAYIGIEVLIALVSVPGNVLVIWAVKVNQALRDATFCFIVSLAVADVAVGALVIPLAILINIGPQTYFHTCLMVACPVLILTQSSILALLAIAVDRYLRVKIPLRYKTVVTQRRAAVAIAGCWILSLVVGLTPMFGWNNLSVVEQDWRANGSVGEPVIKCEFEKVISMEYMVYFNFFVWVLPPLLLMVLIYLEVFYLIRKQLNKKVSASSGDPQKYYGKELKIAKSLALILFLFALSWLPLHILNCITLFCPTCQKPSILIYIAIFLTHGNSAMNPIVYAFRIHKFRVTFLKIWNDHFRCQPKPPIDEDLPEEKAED
Description: as §1

[5] = molecular target: T3, A3 receptors (Rattus norvegicus, UniProt P28647); assay: Radioligand binding at rat A3 adenosine receptors, values marked (r); conditions: read-out: K1 (nM), A3 (r)
T3 sequence (P28647 1-320): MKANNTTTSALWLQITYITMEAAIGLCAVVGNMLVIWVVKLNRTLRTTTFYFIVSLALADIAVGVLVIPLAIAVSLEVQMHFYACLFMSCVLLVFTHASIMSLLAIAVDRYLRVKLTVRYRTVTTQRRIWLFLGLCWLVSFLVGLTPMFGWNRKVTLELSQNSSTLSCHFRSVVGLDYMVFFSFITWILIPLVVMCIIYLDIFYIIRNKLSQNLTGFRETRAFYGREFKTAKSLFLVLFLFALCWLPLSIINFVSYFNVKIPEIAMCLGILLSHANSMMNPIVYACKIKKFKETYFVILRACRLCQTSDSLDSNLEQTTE
Description: as §1

[6] = molecular target: T4, cloned hA3AR (Homo sapiens, UniProt P0DMS8); assay: Stimulation of [35S]GTPγS binding, CHO cell membranes expressing cloned hA3AR; conditions: for cloned hA3AR % Maximal Stimulation / cloned hA3AR % Stimulation at 10 μM / agonist efficacy at human A3 receptors: [35S]GTPγS binding; for EC50: stimulation of basal [35S]GTPγS binding, n = 3
T4 sequence (P0DMS8 1-318): T1 sequence (P0DMS8 1-318)
Description: (§2) CHO cells stably transfected with either human A1 or A3 receptors (gift of Dr. Gary Stiles and Dr. Mark Olah, Duke University Medical Center) were cultured as monolayers in medium supplemented with 10% fetal bovine serum. […] The final pellets were resuspended in 50 mM Tris.HCl buffer, pH 7.4, containing 10 mM MgCl2 and 0.1 mM EDTA and stored at −70° C.
(§3) After transferring the filters into a vial containing 3 ml of scintillation cocktail, the radioactivity was determined in a scintillation counter.
(§4) Binding of [^35S]GTP-γ-S was studied in membranes prepared from CHO cells stably expressing human A1 or A3 receptors (Table 2).

[7] = molecular target: T5, rA1AR (Rattus norvegicus, UniProt P25099); assay: Stimulation of [35S]GTPγS binding, rat cerebral cortical membranes containing the A1AR; format: biochemical; conditions: for Emax: read-out: rA1AR % Maximal Stimulation
T5 construct: in rat cerebral cortical membranes containing the A1AR; from tissue; host or cells: rat cerebral cortical membranes
T5 sequence (P25099 1-326): T2 sequence (P25099 1-326)
Description: as §3

[8] = molecular target: T6, cloned hA1AR (Homo sapiens, UniProt P30542); assay: Stimulation of [35S]GTPγS binding, CHO cell membranes expressing cloned hA1AR; conditions: for Emax: read-out: cloned hA1AR % Maximal Stimulation
T6 sequence (P30542 1-326): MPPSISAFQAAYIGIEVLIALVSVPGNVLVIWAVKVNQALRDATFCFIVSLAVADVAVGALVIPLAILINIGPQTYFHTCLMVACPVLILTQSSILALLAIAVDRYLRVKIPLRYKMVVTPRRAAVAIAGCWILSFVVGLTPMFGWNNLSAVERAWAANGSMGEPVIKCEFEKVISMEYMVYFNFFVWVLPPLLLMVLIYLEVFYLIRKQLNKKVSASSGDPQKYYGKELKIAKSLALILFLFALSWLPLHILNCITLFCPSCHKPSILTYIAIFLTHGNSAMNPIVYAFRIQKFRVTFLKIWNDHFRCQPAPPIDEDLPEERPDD
Description: as §2, §3, §4

[9] = molecular target: T7, human A2B receptor (Homo sapiens, UniProt P29275); assay: Radioligand binding at human A2B receptor using [3H]ZM 241,385; conditions: for Ki: read-out: K1 (nM), hA2B
T7 sequence (P29275 1-332): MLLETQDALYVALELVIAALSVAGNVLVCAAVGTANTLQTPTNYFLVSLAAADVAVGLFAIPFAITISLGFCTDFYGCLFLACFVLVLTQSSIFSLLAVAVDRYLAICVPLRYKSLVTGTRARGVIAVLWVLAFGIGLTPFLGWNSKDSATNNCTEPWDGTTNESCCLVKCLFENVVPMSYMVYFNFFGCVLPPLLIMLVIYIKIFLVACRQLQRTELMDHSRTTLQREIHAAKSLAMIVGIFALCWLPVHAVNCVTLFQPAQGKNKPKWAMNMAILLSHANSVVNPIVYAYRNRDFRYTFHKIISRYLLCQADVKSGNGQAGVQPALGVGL
Description: The total volume of the reaction mixture was 125 μl. Bound and free ligands were separated by rapid filtration of the reaction mixture through Whatman GF/B glass filters. The filters were immediately washed with two 5 ml-portions of ice-cold 50 mM Tris.HCl buffer (pH 7.4). The radioactivity bound to the filters was determined in a Beckman gamma counter.

[10] = IC50, antagonists, P2Y1 receptors
[11] = IC50, μM, inhibition of the effect elicited by 10 nM 2-MeSADP
[12] = read-out: Antagonist Effect, % of maximal inhibition
[13] = read-out: cloned hA1AR EC50, stimulation of basal [35S]GTPγS binding, n = 3

CNc1ncnc2c1ncn2[C@H]1C[C@H](OP(=O)(O)O)C2(COP(=O)(O)O)C[C@H]12 (stereo partly drawn) [Compound 4b, (1R,2S,4S,5S)-1-[(phosphato)methyl]-4-(6-methylaminopurin-9-yl)bicyclo[[3.1.0.]-hexane-2-phosphatetetraammoniun salt]
IC50 [1, 10]: 0.276 µM
IC50 [1, 11]: 0.157 ± 0.06 µM
agonist or antagonist character at P2Y1 receptors [1]: antagonists
inhibition at 100 µM [1, 12]: 100%

CNc1ncnc2c1ncn2[C@H]1C[C@H](OP(=O)(O)O)[C@]2(COP(=O)(O)O)C[C@H]12 [Compound 4b, (1R,2S,4S,5S)-1-[(phosphato)methyl]-4-(6-methylaminopurin-9-yl)bicyclo[[3.1.0.]-hexane-2-phosphatetetraammoniun salt]
Ki [2]: 2.24 ± 1.45 nM
Ki [3]: 732 ± 207 nM
Ki [4]: 141 ± 22 nM

CNc1nc(Cl)nc2c1ncn2[C@H]1C[C@H](OP(=O)(O)O)C2(COP(=O)(O)O)C[C@H]12 (some centres unmarked) [Compound 4c, (N)-Methanocarba-N^6-methyl-2-chloro-2′-deoxyadenosine-3′,5′-bis(diammonium phosphate)]
IC50 [1, 10]: 0.053 µM
IC50 [1, 11]: 0.0516 ± 0.0008 µM
agonist or antagonist character at P2Y1 receptors [1]: antagonists
inhibition at 100 µM [1, 12]: 100%

CNc1nc(Cl)nc2c1ncn2[C@H]1C[C@H](OP(=O)(O)O)[C@]2(COP(=O)(O)O)C[C@H]12 [Compound 4c, (N)-Methanocarba-N^6-methyl-2-chloro-2′-deoxyadenosine-3′,5′-bis(diammonium phosphate)]
Ki [3]: 25400 nM
Ki [4]: 8730 ± 370 nM

Nc1ncnc2c1ncn2[C@@]12C[C@H](OP(=O)(O)O)[C@@H](COP(=O)(O)O)[C@@H]1C2 [Compound 5, (1S,3S,4R,5S)-4-[(phosphato)methyl]-1-(6-aminopurin-9-yl)bicyclo[3.1.0]-hexane-3-phosphate tetraammonium salt]
EC50 [1]: 13300 nM
agonist or antagonist character at P2Y1 receptors [1]: agonist
IC50, μM ([1]; inhibition of the effect elicited by 10 nM 2-MeSADP): small decrease
inhibition at 100 µM ([1]; read-out: Antagonist Effect, % inhibition at 100 μM): 34%
Agonist Effect, % of maximal increase ([1]; relative to maximal effective concentration of 2-MeSADP, NE = no effect at 100 μM): 41 ± 13%

Nc1ncnc2c1ncn2[C@@H]1O[C@H](CO)[C@@H](O)[C@H]1O [Compound 5a, adenosine]
Ki [5]: ~1000 nM

OC[C@H]1O[C@@H](n2cnc3c(NC4CCCC4)ncnc32)[C@H](O)[C@@H]1O [Compound 6a, CPA, reference compound]
Ki [2]: 274 ± 20 nM
cloned hA3AR % Maximal Stimulation [6]: 100%
EC50 ([6]; read-out: cloned hA3AR EC50): 7980 ± 60 nM

OCC12CC1C(n1cnc3c(NC4CCCC4)ncnc31)C(O)C2O [Compound 6c, (1′R,2R,3′R,4′R,1′aR)-2,3-(dihydroxy)-4-(hydroxymethyl)-1-(6-cyclopentylaminopurine-9-yl)bicyclo(3.1.0)hexane)]
Ki [2]: 170 ± 51 nM
A1/A3 [2]: 0.030
EC50 [7]: 100 ± 17 nM
Emax [7]: 75 ± 6%
cloned hA3AR % Stimulation at 10 μM [6]: 14 ± 2% at 10 μM
EC50 ([6]; cloned hA3AR EC50 (nM)): > 10000 nM
Ki [3]: 6800 ± 1800 nM
EC50 [8]: 21.5 ± 2.3 nM
agonist efficacy at human A1 receptors ([8]; [35S]GTPγS binding): full agonist
Emax [8]: 102 ± 1%
Ki [4]: 5.06 ± 0.51 nM
affinity at rat A1 receptors, fold less than for 6a ([4]; versus 6a): 3 fold

OC[C@H]1O[C@@H](n2cnc3c(NCc4cccc(I)c4)ncnc32)[C@H](O)[C@@H]1O [Compound 7a, reference compound]
Emax [7]: 95 ± 4%
agonist efficacy at human A3 receptors [6]: full A3 agonists
cloned hA3AR % Maximal Stimulation [6]: 100%
Emax [8]: 91 ± 1%
EC50 [8, 13]: 43.1 ± 10.4 nM

OC[C@H]1C[C@@H](n2cnc3c(NCc4cccc(I)c4)ncnc32)[C@@H](O)[C@@H]1O [Compound 7b, (1′R, 2′R,3′R,4′R)-2,3-(dihydroxy)-4-(hydroxymethyl)-1-(6-(3-idobenzylamino)purine-9-yl)cyclopentane]
Ki [2]: 1960 ± 370 nM
A1/A3 [2]: 13
cloned hA3AR % Stimulation at 10 μM [6]: 15 ± 5% at 10 μM
EC50 ([6]; read-out: cloned hA3AR EC50): > 10000 nM
% displacement, rA2A ([3]; at 100 μM): <10% 100 μM
cloned hA1AR % Stimulation at 10 μM ([8]; [35S]GTPγS binding, at 10 μM): 5 ± 2% at 10 μM
EC50 [8, 13]: > 10000 nM
Ki [4]: 25900 nM

OCC12CC1C(n1cnc3c(NCc4cccc(I)c4)ncnc31)C(O)C2O (centres unmarked) [Compound 7c, 4-[6-(3-iodobenzylamino)-purin-9-yl]-1-hydroxymethyl-bicyclo[3.1.0]hexane-2,3-diol]
Ki [2]: 4.1 nM and 4.13 nM
Ki [9]: 12100 nM
cloned hA3AR % Maximal Stimulation [6]: 45.3 ± 6.8%
EC50 ([6]; cloned hA3AR EC50 (nM)): 0.7 ± 0.16 nM
Emax ([6]; read-out: cloned hA3AR % Maximal Stimulation, [35S]GTPγS binding): 45%
Ki [3]: 601 ± 236 nM
EC50 [8]: 218 ± 18 nM
Emax [8]: 86 ± 2%

OCC1C(O)C(O)C2(n3cnc4c(NC5CCCC5)nc(Cl)nc43)CC12 (centres unmarked) [Compound 8c]
Ki [2]: 466 ± 58 nM
A1/A3 [2]: 0.019
% displacement, hA2B ([9]; at 100 μM): 27 ± 7% at 100 μM
EC50 [7]: 145 ± 35 nM
rA1AR % Maximal Stimulation [7]: 96 ± 2%
Ki [3]: 3390 ± 520 nM
cloned hA1AR % Maximal Stimulation ([8]; [35S]GTPγS binding): 97 ± 1%
EC50 [8, 13]: 31.2 ± 3.3 nM
selectivity in binding to rat A1 vs. human A3 receptors ([4]; binding): 53 fold
Ki [4]: 8.76 ± 0.81 nM

OCC1C(O)C(O)C2(n3cnc4c(NCc5cccc(I)c5)nc(Cl)nc43)CC12 (centres unmarked) [Compound 9c]
Ki [9]: 41000 nM
EC50 [7]: 684 ± 75 nM
rA1AR % Maximal Stimulation [7]: 48 ± 3%
agonist efficacy at human A3 receptors [6]: partial A3 receptor agonists
cloned hA3AR % Maximal Stimulation [6]: 22%
Ki [3]: 732 nM
cloned hA1AR % Maximal Stimulation ([8]; [35S]GTPγS binding): 91 ± 1%
EC50 [8, 13]: 142 ± 24 nM
Ki [4]: 141 nM
